Results taken from paper PMC9753513 (ACS Omega, 2022).

Target: T1, human dihydrofolate reductase (hDHFR) (Homo sapiens, UniProt P00374)
T1 sequence (P00374 1-187): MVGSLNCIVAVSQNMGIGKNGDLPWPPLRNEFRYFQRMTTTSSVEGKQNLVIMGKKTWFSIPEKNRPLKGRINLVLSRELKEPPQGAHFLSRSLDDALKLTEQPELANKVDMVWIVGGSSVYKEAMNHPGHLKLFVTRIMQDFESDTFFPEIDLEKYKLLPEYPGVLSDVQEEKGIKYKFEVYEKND
Experiment: hDHFR inhibition assay
Type: biochemical

CN(C)c1ccc(C=NNC(=O)CSc2nc3sc4c(c3c(=O)n2-c2ccccc2)CCCCC4)cc1 [compound 23, N′-[4-(Dimethylamino)benzylidene]-2-[(4-oxo-3-phenyl-6,7,8,9-tetrahydro-3H-cyclohepta[4,5]thieno[2,3-d]pyrimidin-2-yl)thio]acetohydrazide]
IC50: 280 nM
